# Measurements taken from US12509453B2, “BRM/BRG1 inhibitors and uses thereof” (Foghorn Therapeutics Inc., priority 2019, dated 2025).
# Experiments:
# BRG-1 = molecular target: T1, BRG-1 (Homo sapiens, UniProt P51532); test: ATPase catalytic activity assay (ADP-Glo), BRG-1; format: biochemical; conditions: 30 nM BRG-1, 400 μM ATP; for IC50: 20 nM salmon sperm DNA, read-out: BRG1 IP50 (μM)*; for Emax: read-out: BRG1 Max % Inhibition
# T1 construct: made in house; host or cells: High Five insect cells
# Description: (§1) The ATPase catalytic activity of BRM or BRG-1 was measured by the in vitro biochemical assay using ADP-Glo™ (Promega, V9102). The ADP-Glo™ kinase assay is performed in two steps once the reaction is complete. The first step is to deplete any unconsumed ATP in the reaction. The second step is to convert the reaction product ADP to ATP, which will be utilized by the luciferase to generate luminesce and be detected by a luminescence reader, such as Envision.
# (§2) The assay reaction mixture (10 μL) contains 30 nM of BRM or BRG-1, 20 nM salmon sperm DNA (from Invitrogen, UltraPure™ Salmon Sperm DNA Solution, cat #15632011), and 400 μM of ATP in the ATPase assay buffer, which comprises of 20 mM Tris, pH 8, 20 mM MgCl2, 50 mM NaCl, 0.1% Tween-20, and 1 mM fresh DTT (Pierce™ DTT (Dithiothreitol), cat #20290). The reaction is initiated by the addition of the 2.5 μL ATPase solution to 2.5 μL ATP/DNA solution on low volume white Proxiplate-384 plus plate (PerkinElmer,cat #6008280) and incubates at room temperature for 1 hour. Then following addition of 5 μL of ADP-Glo™ Reagent provided in the kit, the reaction incubates at room temperature for 40 minutes. Then 10 μL of Kinase Detection Reagent provided in the kit is added to convert ADP to ATP, and the reaction incubates at room temperature for 60 minutes. Finally, luminescence measurement is collected with a plate-reading luminometer, such as Envision.
# as §1, with “The” for “The ATPase catalytic activity of BRM or BRG-1 was measured by the in vitro biochemical assay using ADP-Glo™ (Promega, V9102). The”
# as §2, with “BRG1,” for “BRG-1,”
# BRM = molecular target: T2, BRM (Homo sapiens, UniProt P51531); test: ATPase catalytic activity assay (ADP-Glo), BRM; format: biochemical; conditions: 30 nM BRM, 400 μM ATP; for IC50: 20 nM salmon sperm DNA, read-out: BRM IP50 (μM)*
# T2 construct: made in house; host or cells: High Five insect cells
# Description: as §1, §2
# as §1, with “The” for “The ATPase catalytic activity of BRM or BRG-1 was measured by the in vitro biochemical assay using ADP-Glo™ (Promega, V9102). The”
# as §2, with “BRG1,” for “BRG-1,”
# T1 sequence (P51532 whole entry): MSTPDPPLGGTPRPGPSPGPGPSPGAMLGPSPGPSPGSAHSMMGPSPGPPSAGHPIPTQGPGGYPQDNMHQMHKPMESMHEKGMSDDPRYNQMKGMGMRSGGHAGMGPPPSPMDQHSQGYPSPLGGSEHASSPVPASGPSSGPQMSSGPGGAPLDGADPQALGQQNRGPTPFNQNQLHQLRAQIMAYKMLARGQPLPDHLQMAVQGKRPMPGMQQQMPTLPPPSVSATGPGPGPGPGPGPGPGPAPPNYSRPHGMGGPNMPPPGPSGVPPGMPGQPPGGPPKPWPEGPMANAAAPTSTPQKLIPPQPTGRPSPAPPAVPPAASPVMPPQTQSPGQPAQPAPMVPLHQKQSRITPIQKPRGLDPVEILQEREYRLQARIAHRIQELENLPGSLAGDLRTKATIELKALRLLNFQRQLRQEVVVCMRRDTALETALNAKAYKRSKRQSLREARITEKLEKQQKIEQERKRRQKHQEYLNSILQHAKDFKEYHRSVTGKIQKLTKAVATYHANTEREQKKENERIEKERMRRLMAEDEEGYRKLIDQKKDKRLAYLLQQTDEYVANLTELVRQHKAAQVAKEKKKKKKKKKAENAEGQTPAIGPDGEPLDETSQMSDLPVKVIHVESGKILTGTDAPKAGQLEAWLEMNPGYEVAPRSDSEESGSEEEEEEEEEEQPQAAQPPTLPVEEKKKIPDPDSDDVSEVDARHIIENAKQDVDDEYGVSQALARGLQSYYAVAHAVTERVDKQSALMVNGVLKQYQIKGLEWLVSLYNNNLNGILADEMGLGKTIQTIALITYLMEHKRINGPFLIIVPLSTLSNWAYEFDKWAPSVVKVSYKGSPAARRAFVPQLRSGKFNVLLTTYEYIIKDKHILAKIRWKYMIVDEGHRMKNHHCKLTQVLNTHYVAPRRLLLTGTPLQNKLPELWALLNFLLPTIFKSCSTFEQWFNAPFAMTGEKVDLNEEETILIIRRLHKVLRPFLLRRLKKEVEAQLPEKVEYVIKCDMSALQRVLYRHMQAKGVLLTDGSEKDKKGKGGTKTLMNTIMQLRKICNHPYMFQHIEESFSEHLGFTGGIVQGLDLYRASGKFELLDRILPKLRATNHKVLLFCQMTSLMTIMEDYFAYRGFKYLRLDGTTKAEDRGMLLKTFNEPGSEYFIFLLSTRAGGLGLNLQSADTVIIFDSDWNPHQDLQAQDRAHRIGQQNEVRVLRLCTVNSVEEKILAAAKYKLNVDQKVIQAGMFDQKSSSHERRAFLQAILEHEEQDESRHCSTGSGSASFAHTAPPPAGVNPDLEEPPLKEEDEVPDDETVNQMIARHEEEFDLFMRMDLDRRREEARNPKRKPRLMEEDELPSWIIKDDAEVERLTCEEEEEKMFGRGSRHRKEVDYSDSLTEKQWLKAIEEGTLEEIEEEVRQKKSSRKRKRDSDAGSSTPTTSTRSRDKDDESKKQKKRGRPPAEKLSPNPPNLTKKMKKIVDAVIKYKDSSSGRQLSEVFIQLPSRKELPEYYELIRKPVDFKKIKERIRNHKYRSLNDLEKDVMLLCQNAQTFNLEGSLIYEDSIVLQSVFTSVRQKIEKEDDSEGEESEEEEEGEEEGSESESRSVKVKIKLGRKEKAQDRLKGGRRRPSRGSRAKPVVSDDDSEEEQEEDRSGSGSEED
# T2 sequence (P51531 whole entry): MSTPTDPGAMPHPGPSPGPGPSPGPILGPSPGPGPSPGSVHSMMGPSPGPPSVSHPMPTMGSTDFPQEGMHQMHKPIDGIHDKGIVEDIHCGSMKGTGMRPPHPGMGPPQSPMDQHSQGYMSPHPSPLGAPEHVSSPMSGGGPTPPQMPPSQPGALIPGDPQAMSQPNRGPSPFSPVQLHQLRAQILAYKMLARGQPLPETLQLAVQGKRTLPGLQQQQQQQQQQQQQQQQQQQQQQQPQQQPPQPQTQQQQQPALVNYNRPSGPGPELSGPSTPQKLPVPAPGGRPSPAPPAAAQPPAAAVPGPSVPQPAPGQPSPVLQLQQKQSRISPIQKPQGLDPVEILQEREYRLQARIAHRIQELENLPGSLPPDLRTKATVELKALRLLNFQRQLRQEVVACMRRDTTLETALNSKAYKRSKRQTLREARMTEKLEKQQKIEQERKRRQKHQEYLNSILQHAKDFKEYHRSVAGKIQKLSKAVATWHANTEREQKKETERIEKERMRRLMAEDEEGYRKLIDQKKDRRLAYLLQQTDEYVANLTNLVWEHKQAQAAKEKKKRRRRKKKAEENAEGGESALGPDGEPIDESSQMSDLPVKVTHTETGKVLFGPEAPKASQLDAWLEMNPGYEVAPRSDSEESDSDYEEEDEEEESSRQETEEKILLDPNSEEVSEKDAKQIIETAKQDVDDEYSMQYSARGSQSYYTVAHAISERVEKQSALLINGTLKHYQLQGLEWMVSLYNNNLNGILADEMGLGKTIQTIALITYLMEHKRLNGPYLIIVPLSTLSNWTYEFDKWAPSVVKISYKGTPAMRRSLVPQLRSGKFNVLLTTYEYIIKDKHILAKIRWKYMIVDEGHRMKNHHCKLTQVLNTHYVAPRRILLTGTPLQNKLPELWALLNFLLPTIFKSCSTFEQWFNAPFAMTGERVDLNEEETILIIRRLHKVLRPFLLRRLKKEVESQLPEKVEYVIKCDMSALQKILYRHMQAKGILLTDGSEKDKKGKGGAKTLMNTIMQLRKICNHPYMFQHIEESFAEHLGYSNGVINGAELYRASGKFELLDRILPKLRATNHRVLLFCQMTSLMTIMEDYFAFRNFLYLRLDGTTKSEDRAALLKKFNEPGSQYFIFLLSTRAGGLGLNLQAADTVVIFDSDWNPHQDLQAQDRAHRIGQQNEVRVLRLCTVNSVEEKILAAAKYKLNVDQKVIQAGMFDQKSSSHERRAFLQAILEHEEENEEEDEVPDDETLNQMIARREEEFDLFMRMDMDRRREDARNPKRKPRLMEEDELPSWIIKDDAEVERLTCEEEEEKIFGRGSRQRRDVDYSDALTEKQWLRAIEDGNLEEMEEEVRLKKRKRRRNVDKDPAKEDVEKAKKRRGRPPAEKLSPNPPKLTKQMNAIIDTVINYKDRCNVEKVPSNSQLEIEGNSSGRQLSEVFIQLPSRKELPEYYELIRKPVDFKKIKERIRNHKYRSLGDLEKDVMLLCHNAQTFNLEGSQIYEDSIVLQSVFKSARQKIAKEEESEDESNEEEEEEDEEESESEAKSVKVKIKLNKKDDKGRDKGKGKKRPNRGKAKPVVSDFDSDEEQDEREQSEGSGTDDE
IC50 (BRG-1),Emax (BRG-1),BRM Max % Inhibition (BRM),IC50 (BRM),SMILES
1 to 5 µM,> 40%,>90%,0.1 to 1 µM,"Cc1cc(-c2cccc(-c3csc(NC(=O)CNC(=O)c4cn(S(C)(=O)=O)c5ccccc45)n3)n2)ncn1 [Compound 23, N-(2-((4-(6-(6-methylpyrimidin-4-yl)pyridin-2-yl)thiazol-2-yl)amino)-2-oxoethyl)-1-(methylsulfonyl)-1H-indole-3-carboxamide]"
0.1 to 1 µM,> 90%,>95%,< 0.1 µM,Cc1c(C(=O)NCC(=O)Nc2nc(-c3cccc(N4C[C@@H](C)O[C@@H](C)C4)c3)cs2)cn(S(C)(=O)=O)c1C [Compound 15]
0.1 to 1 µM,> 80%,>95%,< 0.1 µM,Cc1nccc(-c2cccc(-c3csc(NC(=O)CNC(=O)c4cn(S(=O)(=O)C(C)C)c(C)c4C)n3)c2)n1 [Compound 17]
0.1 to 1 µM,> 80%,>95%,< 0.1 µM,"Cc1cc(-c2cccc(-c3csc(NC(=O)CNC(=O)c4cn(S(C)(=O)=O)c5c4CCCC5)n3)c2)cc(C)n1 [Compound 35, N-(2-((4-(3-(2,6-dimethylpyridin-4-yl)phenyl)thiazol-2-yl)amino)-2-oxoethyl)-1-(methylsulfonyl)-4,5,6,7-tetrahydro-1H-indole-3-carboxamide]"
1 to 5 µM,> 60%,>90%,0.1 to 1 µM,CC(C)S(=O)(=O)n1cc(C(=O)NCC(=O)Nc2nc(-c3cccc(N4C[C@@H](C)O[C@@H](C)C4)c3)cs2)cc1Cl [Compound 36]
0.1 to 1 µM,> 70%,>95%,0.1 to 1 µM,"Cc1cc(C(=O)NCC(=O)Nc2nc(-c3cccc(N4C[C@@H](C)O[C@@H](C)C4)c3)cs2)cn1S(=O)(=O)C(C)C [Compound 8, N-(2-((4-(3-((2S,6R)-2,6-dimethylmorpholino)phenyl)thiazol-2-yl)amino)-2-oxoethyl)-1-(isopropylsulfonyl)-5-methyl-1H-pyrrole-3-carboxamide]"
> 5 µM,< 30%,>50%,< 0.1 µM,"CC(C)S(=O)(=O)n1cc(C(=O)NCC(=O)Nc2nc(-c3cccc(-c4ccncc4)c3)cs2)c(Cl)c1Cl [Compound 30, 4,5-dichloro-1-isopropylsulfonyl-N-[2-oxo-2-[[4-[3-(4-pyridyl)phenyl]thiazol-2-yl]amino]ethyl]pyrrole-3-carboxamide]"
0.1 to 1 µM,> 90%,>95%,< 0.1 µM,"Cc1cc(-c2cccc(-c3csc(NC(=O)CNC(=O)c4cc(Cl)n(S(=O)(=O)C(C)C)c4)n3)c2)nc(C)n1 [Compound 32, 5-chloro-N-(2-((4-(3-(2,6-dimethylpyrimidin-4-yl)phenyl)thiazol-2-yl)amino)-2-oxoethyl)-1-(isopropylsulfonyl)-1H-pyrrole-3-carboxamide]"
> 5 µM,< 30%,>90%,0.1 to 1 µM,"CC(C)S(=O)(=O)n1cc(C(=O)NCC(=O)Nc2nc(-c3cc(F)cc(N4C[C@@H](C)O[C@@H](C)C4)c3)cs2)c2ccccc21 [Compound 21, N-(2-((4-(3-((cis)-2,6-dimethylmorpholino)-5-fluorophenyl)thiazol-2-yl)amino)-2-oxoethyl)-1-(isopropylsulfonyl)-1H-indole-3-carboxamide]"
0.1 to 1 µM,> 90%,>95%,< 0.1 µM,"Cc1nccc(-c2cccc(-c3csc(NC(=O)CNC(=O)c4cc(Cl)n(S(=O)(=O)C(C)C)c4)n3)c2)n1 [Compound 41, 5-chloro-1-isopropylsulfonyl-N-[2-[[4-[3-(2-methylpyrimidin-4-yl)phenyl]thiazol-2-yl]amino]-2-oxo-ethyl]pyrrole-3-carboxamide]"
< 0.1 µM,> 95%,>95%,< 0.1 µM,Cc1nccc(-c2cccc(-c3csc(NC(=O)CNC(=O)c4cc(C)n(S(=O)(=O)C(C)C)c4)n3)c2)n1 [Compound 16]
0.1 to 1 µM,> 60%,>80%,0.1 to 1 µM,"Cc1cc(-c2cccc(-c3csc(NC(=O)CNC(=O)c4cc(Cl)n(S(=O)(=O)C(C)C)c4)n3)n2)ncn1 [Compound 27, 5-chloro-1-(isopropylsulfonyl)-N-(2-((4-(6-(6-methylpyrimidin-4-yl)pyridin-2-yl)thiazol-2-yl)amino)-2-oxoethyl)-1H-pyrrole-3-carboxamide]"
0.1 to 1 µM,–,–,< 0.1 µM,"C[C@@H]1CN(c2cccc(-c3csc(NC(=O)CNC(=O)c4cnn(C(C)(C)C)c4Cl)n3)c2)C[C@H](C)O1 [Compound 43, 1-(tert-butyl)-5-chloro-N-(2-((4-(3-((2R,6S)-2,6-dimethylmorpholino)phenyl)thiazol-2-yl)amino)-2-oxoethyl)-1H-pyrazole-4-carboxamide]"
1 to 5 µM,> 40%,>80%,0.1 to 1 µM,"Cc1nccc(-c2cccc(-c3csc(NC(=O)CNC(=O)c4cn(S(C)(=O)=O)c5ccccc45)n3)n2)n1 [Compound 22, N-(2-((4-(6-(2-methylpyrimidin-4-yl)pyridin-2-yl)thiazol-2-yl)amino)-2-oxoethyl)-1-(methylsulfonyl)-1H-indole-3-carboxamide]"
1 to 5 µM,> 60%,>90%,0.1 to 1 µM,"C[C@@H]1CN(c2cccc(-c3csc(NC(=O)CNC(=O)c4cn(S(C)(=O)=O)c5ccccc45)n3)c2)C[C@H](C)O1 [Compound 26, N-(2-((4-(3-((cis)-2,6-dimethylmorpholino)phenyl)thiazol-2-yl)amino)-2-oxoethyl)-1-(methylsulfonyl)-1H-indole-3-carboxamide]"
< 0.1 µM,> 80%,>95%,< 0.1 µM,"Cc1c(C(=O)NCC(=O)Nc2nc(-c3cccc(-c4ccncc4)c3)cs2)cn(S(C)(=O)=O)c1C [Compound 11, 4,5-dimethyl-1-(methylsulfonyl)-N-(2-oxo-2-((4-(3-(pyridin-4-yl)phenyl)thiazol-2-yl)amino)ethyl)-1H-pyrrole-3-carboxamide]"
> 5 µM,> 40%,>40%,> 5 µM,"CS(=O)(=O)n1cc(C(=O)NCC(=O)Nc2nc(-c3cccc(-c4ccncc4)c3)cs2)c2ncccc21 [Compound 3, 1-(methylsulfonyl)-N-(2-oxo-2-((4-(3-(pyridin-4-yl)phenyl)thiazol-2-yl)amino)ethyl)-1H-pyrrolo[3,2-b]pyridine-3-carboxamide]"
> 5 µM,< 30%,>70%,0.1 to 1 µM,"Cc1c(C(=O)NCC(=O)Nc2nc(-c3cccc(-c4ccncc4)c3)cs2)cn(S(=O)(=O)C(C)C)c1C [Compound 10, 1-(isopropylsulfonyl)-4,5-dimethyl-N-(2-oxo-2-((4-(3-(pyridin-4-yl)phenyl)thiazol-2-yl)amino)ethyl)-1H-pyrrole-3-carboxamide]"
